Measurements from patent US10800791B2, “Triazole ACC inhibitors and uses thereof” (Gilead Apollo, LLC, priority 2015, dated 2020).
Converted amounts (≈) assume the structure as drawn. Where two headings read alike, the source gives them in different places.

Legend:
human (hACC2) = human (hACC2) (Homo sapiens, UniProt O00763); test: In vitro ACC inhibition assay (ADP-Glo), hACC2; assay type: biochemical; details: 5 nM ACC2, 20 μM ATP, 20 μM acetyl-CoA
Procedure: The detailed procedure is as follows. […] 10 μL ADP glo reagent was added. […] 20 μL kinase detection reagent was added.

C. krusei = test: Antifungal Activity Assay (broth microtiter MIC), C. krusei; assay type: cell-based, Candida krusei; details: Pichia kudriavzevii, ATCC6258, 48 h
Procedure: (§1) Compounds of the present invention were evaluated in an Antifungal Activity Assay. An exemplary procedure for the assay, which measures the susceptibility of various Candida species to antifungal compounds, follows. Compounds to be tested (including fluconazole and amphotericin B) were dissolved in DMSO to obtain a solution having a concentration of 1 mg/mL. These stock solutions were sterile filtered using a 0.22 um nylon syringe filter, then diluted in sterile water to achieve a final concentration of 128 μg/mL.
(§2) All species were grown from frozen stock by directly plating on to freshly prepared Sabouraud Dextrose agar (BD, Difco) and incubated overnight in ambient air at 35° C. for 24 h. A direct suspension was prepared in RPMI 1640+MOPS (Lonza, Biowhittaker) by taking individual colonies from the overnight cultures using sterile swabs soaked in sterile saline. The concentration of the suspension was determined using pre-determined standard curves. These suspensions were then diluted down to 5×10^3 CFU/mL to achieve a final concentration of 2.5×10^3 CFU/mL once added to the microtiter plate as per CLSI guidelines (M27-A3, Vol. 28 No. 14).
(§3) Broth microtiter MIC challenge plates were prepared following CLSI guidelines (M27-A3, Vol. 28 No. 14). The original CLSI guidelines focused on reading Candida MICs after 48 h of incubation. As reading after only 24 h offers a clear advantage of patient care, QC limits are being established for all drugs at 24 h. That being said there are no known interpretive breakpoints for amphotericin B at 24 h and the current fluconazole interpretive breakpoints are based on a 48 h reading. The MICs for the test compounds were recorded at 48 h. All MIC determinations were achieved by visually comparing the growth found in the antibiotic challenged wells to that of the growth control.

C. parapsilosis = test: Antifungal Activity Assay (broth microtiter MIC), C. parapsilosis; assay type: cell-based, Candida parapsilosis; details: Lodderomyces parapsilosis, ATCC22019, 48 h
Procedure: as §1, §2, §3

C. albicans = test: Antifungal Activity Assay (broth microtiter MIC), C. albicans; assay type: cell-based, Candida albicans; details: Candida albicans, ATCC90028, 48 h
Procedure: as §1, §2, §3

fungal (fACC2) = fungal (fACC2) (UniProt Q00955); details: read-out: fACC2 (in vitro ACC2 Inhibition Assay, IC50), ADP-Glo, 5 nM ACC2, 20 μM ATP, 20 μM acetyl-CoA
Sequence of fungal (fACC2) (Q00955 whole entry): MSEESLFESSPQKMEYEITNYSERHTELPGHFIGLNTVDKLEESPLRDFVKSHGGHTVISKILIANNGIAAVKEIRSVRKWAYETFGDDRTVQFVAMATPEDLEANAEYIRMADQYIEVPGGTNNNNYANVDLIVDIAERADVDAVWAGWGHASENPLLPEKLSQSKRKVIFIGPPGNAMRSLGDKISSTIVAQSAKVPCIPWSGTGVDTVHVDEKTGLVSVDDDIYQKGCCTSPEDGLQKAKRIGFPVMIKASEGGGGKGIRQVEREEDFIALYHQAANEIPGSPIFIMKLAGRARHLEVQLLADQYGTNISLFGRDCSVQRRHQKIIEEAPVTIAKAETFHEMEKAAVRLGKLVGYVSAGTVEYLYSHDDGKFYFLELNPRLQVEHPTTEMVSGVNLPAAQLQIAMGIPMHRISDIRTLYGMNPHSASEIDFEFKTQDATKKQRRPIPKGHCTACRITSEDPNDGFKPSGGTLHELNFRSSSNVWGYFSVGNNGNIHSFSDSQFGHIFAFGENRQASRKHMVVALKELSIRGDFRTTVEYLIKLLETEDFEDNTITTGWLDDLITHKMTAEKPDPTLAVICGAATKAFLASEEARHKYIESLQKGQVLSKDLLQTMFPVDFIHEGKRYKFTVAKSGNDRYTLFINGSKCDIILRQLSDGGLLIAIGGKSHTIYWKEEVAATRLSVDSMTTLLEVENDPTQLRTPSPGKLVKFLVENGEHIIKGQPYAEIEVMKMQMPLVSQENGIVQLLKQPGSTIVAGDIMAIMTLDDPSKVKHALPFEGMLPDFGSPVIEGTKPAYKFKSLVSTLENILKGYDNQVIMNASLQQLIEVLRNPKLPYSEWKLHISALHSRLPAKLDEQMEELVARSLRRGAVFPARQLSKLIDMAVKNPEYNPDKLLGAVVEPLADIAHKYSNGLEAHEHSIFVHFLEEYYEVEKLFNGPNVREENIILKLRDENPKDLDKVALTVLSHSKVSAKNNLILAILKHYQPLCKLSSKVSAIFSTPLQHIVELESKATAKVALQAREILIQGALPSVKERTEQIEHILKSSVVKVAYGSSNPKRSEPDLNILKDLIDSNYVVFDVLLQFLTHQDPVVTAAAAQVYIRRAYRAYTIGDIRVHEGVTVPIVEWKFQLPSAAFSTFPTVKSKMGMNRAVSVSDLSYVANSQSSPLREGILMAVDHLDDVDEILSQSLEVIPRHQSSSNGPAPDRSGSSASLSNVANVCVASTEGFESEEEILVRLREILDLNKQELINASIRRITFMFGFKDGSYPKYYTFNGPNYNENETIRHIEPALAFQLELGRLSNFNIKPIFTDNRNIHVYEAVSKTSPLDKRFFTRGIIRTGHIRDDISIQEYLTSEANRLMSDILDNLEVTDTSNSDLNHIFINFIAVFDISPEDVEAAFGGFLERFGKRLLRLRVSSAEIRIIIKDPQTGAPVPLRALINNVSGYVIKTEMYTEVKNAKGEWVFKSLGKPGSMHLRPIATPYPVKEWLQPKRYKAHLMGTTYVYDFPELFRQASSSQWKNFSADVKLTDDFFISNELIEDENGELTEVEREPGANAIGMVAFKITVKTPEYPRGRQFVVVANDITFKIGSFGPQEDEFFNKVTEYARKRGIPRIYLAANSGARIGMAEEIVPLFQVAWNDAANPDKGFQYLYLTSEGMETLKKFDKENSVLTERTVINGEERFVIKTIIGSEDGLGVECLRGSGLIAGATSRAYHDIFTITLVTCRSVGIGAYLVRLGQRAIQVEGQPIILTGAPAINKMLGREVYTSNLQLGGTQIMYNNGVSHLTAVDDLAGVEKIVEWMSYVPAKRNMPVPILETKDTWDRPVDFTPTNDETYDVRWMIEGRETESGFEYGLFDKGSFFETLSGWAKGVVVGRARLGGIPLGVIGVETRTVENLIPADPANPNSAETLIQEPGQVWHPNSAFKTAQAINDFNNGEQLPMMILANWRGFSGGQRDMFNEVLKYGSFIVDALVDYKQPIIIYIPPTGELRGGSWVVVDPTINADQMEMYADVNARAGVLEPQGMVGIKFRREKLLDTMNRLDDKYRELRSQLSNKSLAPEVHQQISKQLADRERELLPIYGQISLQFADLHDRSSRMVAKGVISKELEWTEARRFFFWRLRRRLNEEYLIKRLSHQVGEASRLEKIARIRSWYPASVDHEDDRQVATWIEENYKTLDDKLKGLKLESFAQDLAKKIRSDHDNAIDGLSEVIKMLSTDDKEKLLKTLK

[1] = Table 3b (additional results), ATCC 6258, 3 replicates, MIC recorded at 48 h, read-out: MIC, C. krusei ATCC 6258
[2] = Table 3b (additional results), ATCC 22019, 3 replicates, MIC recorded at 48 h, read-out: MIC, C. parapsilosis ATCC 22019
[3] = Table 3b (additional results), ATCC 90028, 3 replicates, MIC recorded at 48 h, read-out: MIC, C. albicans ATCC 90028
[4] = Table 3a, ATCC 6258, 3 replicates, MIC recorded at 48 h, read-out: MIC, C. krusei ATCC 6258
[5] = Table 3a, ATCC 22019, 3 replicates, MIC recorded at 48 h, read-out: MIC, C. parapsilosis ATCC 22019
[6] = Table 3a, ATCC 90028, 3 replicates, MIC recorded at 48 h, read-out: MIC, C. albicans ATCC 90028
[7] = read-out: MIC, C. krusei ATCC 6258, Table 3b (additional results), 3 replicates, MIC recorded at 48 h
[8] = read-out: MIC, C. parapsilosis ATCC 22019, Table 3b (additional results), 3 replicates, MIC recorded at 48 h
[9] = read-out: MIC, C. albicans ATCC 90028, Table 3b (additional results), 3 replicates, MIC recorded at 48 h

Sequence of human (hACC2) (O00763 whole entry): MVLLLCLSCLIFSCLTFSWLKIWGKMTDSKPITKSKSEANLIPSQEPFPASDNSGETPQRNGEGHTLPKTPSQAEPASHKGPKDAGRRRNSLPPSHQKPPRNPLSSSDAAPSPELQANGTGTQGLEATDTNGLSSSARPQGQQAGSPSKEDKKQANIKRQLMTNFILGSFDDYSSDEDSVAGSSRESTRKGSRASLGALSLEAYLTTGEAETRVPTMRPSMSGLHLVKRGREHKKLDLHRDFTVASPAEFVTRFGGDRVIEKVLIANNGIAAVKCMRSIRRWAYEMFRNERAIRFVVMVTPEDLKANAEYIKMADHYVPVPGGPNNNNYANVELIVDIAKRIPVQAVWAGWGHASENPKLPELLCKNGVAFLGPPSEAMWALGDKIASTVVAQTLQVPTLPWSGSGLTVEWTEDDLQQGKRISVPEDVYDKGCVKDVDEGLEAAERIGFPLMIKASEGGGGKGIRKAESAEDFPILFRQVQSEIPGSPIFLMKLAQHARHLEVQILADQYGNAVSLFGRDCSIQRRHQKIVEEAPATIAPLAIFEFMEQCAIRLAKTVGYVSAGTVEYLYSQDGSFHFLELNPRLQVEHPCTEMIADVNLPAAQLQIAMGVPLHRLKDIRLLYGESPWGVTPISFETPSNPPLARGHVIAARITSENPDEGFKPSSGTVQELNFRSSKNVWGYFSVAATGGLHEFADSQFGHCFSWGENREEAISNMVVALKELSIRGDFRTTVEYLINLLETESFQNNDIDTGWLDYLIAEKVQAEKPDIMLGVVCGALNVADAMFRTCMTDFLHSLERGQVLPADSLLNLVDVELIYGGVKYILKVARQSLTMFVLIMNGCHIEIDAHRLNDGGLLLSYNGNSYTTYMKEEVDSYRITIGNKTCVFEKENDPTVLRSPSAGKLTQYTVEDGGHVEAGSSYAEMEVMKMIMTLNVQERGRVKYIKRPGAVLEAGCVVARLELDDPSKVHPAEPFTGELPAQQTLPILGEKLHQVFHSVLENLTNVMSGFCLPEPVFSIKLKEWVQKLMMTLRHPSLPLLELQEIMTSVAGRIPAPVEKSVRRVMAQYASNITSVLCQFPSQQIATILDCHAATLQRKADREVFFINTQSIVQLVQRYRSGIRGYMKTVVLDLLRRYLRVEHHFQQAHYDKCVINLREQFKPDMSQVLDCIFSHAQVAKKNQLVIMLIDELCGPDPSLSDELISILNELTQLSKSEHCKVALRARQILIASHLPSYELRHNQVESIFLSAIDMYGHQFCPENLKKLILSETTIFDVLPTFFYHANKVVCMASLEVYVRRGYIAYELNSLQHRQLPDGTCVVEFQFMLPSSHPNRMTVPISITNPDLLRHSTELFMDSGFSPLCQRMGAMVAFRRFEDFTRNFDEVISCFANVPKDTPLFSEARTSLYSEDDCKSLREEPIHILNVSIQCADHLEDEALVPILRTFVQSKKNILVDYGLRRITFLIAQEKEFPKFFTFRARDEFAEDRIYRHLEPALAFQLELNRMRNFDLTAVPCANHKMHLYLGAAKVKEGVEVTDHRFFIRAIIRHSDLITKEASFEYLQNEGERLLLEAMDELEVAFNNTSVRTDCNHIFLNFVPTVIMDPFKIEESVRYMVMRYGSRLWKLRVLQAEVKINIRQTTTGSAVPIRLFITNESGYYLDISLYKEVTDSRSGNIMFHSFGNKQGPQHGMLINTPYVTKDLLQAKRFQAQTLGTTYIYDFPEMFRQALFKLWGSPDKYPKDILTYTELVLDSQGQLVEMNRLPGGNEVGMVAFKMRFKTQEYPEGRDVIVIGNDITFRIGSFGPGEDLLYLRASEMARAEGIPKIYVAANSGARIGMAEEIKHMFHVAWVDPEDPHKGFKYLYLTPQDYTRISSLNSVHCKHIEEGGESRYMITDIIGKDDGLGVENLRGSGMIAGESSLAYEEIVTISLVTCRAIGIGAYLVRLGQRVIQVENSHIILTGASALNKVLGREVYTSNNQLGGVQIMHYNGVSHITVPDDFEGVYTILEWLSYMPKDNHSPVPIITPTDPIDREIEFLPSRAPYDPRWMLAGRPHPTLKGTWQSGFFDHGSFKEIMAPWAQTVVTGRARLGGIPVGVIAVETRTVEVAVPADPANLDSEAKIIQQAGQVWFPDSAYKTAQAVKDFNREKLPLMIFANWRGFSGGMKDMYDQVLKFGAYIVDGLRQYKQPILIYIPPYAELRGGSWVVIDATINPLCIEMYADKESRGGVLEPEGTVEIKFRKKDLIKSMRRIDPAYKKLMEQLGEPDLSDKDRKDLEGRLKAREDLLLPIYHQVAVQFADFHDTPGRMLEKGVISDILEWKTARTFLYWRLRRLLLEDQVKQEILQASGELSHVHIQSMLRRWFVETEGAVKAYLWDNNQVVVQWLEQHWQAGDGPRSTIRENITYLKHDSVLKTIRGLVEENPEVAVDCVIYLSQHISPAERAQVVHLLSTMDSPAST

Row | Structure (SMILES) | IC50 (human (hACC2); Table 2b, additional results) [nM] | MIC (C. krusei; [1]) [µg/mL] | MIC (C. parapsilosis; [2]) [µg/mL] | MIC (C. albicans; [3]) [µg/mL] | IC50 (fungal (fACC2); Table 2b, additional results) [nM] | IC50 (human (hACC2); Table 2a) [nM] | MIC (C. krusei; [4]) [µg/mL] | MIC (C. parapsilosis; [5]) [µg/mL] | MIC (C. albicans; [6]) [µg/mL] | IC50 (fungal (fACC2); Table 2a) [nM] | MIC (C. krusei; [7]) [µg/mL] | MIC (C. parapsilosis; [8]) [µg/mL] | MIC (C. albicans; [9]) [µg/mL]
1 | CCc1ccc(F)cc1[C@H](Cn1c(=O)n(C(C)(C)C(=O)NC(C)C)c(=O)c2c(C)c(-n3nccn3)sc21)OCC(C)(C)O (stereo in doubt) [Compound I-240] | 10 to 40 | > 4.01 | 2.01 to 4 (≈ 3.27 to 6.51 µM) | 1.01 to 2 (≈ 1.64 to 3.25 µM) | 1 to 5 |  |  |  |  |  |  |  | 
2 | CCc1ccc(F)cc1[C@@H](Cn1c(=O)n(C(C)(C)C(=O)NC(C)C)c(=O)c2c(C)c(-n3nccn3)sc21)OCC(C)(C)O (stereo in doubt) [Compound I-241] | > 40 | > 4.01 | 2.01 to 4 (≈ 3.27 to 6.51 µM) | 1.01 to 2 (≈ 1.64 to 3.25 µM) | 5 to 10 |  |  |  |  |  |  |  | 
3 | COCCO[C@@H](Cn1c(=O)n([C@@H](C)C(=O)NC(C)C)c(=O)c2c(C)c(-n3nccn3)sc21)c1cc(F)ccc1OC [Compound I-83, (S)-2-(1-((R)-2-(5-fluoro-2-methoxyphenyl)-2-(2-methoxy-ethoxy)ethyl)-5-methyl-2,4-dioxo-6-(2H-1,2,3-triazol-2-yl)-1,4-dihydrothieno[2,3-d]pyrimidin-3(2H)-yl)-N-isopropylpropanamide] | > 40 | 2.01 to 4 (≈ 3.41 to 6.8 µM) | 1.01 to 2 (≈ 1.72 to 3.4 µM) | > 4.01 | 1 to 5 | > 40 | 2.1 to 4 (≈ 3.57 to 6.8 µM) | 2.1 to 4 (≈ 3.57 to 6.8 µM) | 2.1 to 4 (≈ 3.57 to 6.8 µM) | 1 to 5 |  |  | 
4 | [2H]C([2H])([2H])Oc1ccccc1[C@H](Cn1c(=O)n(C(C)(C)C(N)=O)c(=O)c2c(C)c(-n3nccn3)sc21)OC1CCOCC1 [Compound I-92] | 5 to 10 | 1.01 to 2 (≈ 1.77 to 3.5 µM) | 2.01 to 4 (≈ 3.52 to 7 µM) | 0.25 to 1 (≈ 0.437 to 1.75 µM) |  | 5 to 10 | 0.25 to 1 (≈ 0.437 to 1.75 µM) | 1.1 to 2 (≈ 1.92 to 3.5 µM) | 0.25 to 1 (≈ 0.437 to 1.75 µM) |  |  |  | 
5 | COc1ccc(F)cc1[C@H](Cn1c(=O)n(C(C)(C)C(=O)O)c(=O)c2c(C)c(-n3nccn3)sc21)OC(C)C [Compound I-93] | 5 to 10 | 1.01 to 2 (≈ 1.85 to 3.67 µM) | > 4.01 | 2.01 to 4 (≈ 3.68 to 7.33 µM) |  | 5 to 10 | 2.1 to 4 (≈ 3.85 to 7.33 µM) | > 4.1 | 2.1 to 4 (≈ 3.85 to 7.33 µM) |  |  |  | 
6 | COc1ccc(F)cc1[C@H](Cn1c(=O)n(C(C)(C)C(=O)O)c(=O)c2c(C)c(-n3nccn3)sc21)OCC(C)C [Compound I-94] | 1 to 5 | 2.01 to 4 (≈ 3.59 to 7.15 µM) | > 4.01 | 2.01 to 4 (≈ 3.59 to 7.15 µM) |  | 1 to 5 | 2.1 to 4 (≈ 3.75 to 7.15 µM) | 2.1 to 4 (≈ 3.75 to 7.15 µM) | 0.25 to 1 (≈ 0.447 to 1.79 µM) |  |  |  | 
7 | COc1ccc(F)cc1[C@H](Cn1c(=O)n(C(C)(C)C(=O)N2CC(O)C2)c(=O)c2c(C)c(-n3nccn3)sc21)OCC(C)C [Compound I-95] | 5 to 10 | 1.01 to 2 (≈ 1.64 to 3.25 µM) | 2.01 to 4 (≈ 3.27 to 6.51 µM) | 2.01 to 4 (≈ 3.27 to 6.51 µM) |  | 5 to 10 | 1.1 to 2 (≈ 1.79 to 3.25 µM) | 1.1 to 2 (≈ 1.79 to 3.25 µM) | 1.1 to 2 (≈ 1.79 to 3.25 µM) |  |  |  | 
8 | COc1ccccc1[C@H](Cn1c(=O)n(C(C)(C)C(=O)O)c(=O)c2c(C)c(-n3nccn3)sc21)OC1CCOCC1 [Compound I-96] | 1 to 5 | 2.01 to 4 (≈ 3.53 to 7.02 µM) | 2.01 to 4 (≈ 3.53 to 7.02 µM) | 1.01 to 2 (≈ 1.77 to 3.51 µM) | 1 to 5 | 1 to 5 | 2.1 to 4 (≈ 3.69 to 7.02 µM) | 2.1 to 4 (≈ 3.69 to 7.02 µM) | 2.1 to 4 (≈ 3.69 to 7.02 µM) | 1 to 5 |  |  | 
9 | COc1ccc(F)cc1[C@H](Cn1c(=O)n(C(C)(C)C(=O)NC(C)C)c(=O)c2c(C)c(-n3nccn3)sc21)OCC(C)=O [Compound I-97] | 1 to 5 | 0.25 to 1 (≈ 0.416 to 1.66 µM) | 1.01 to 2 (≈ 1.68 to 3.33 µM) | 1.01 to 2 (≈ 1.68 to 3.33 µM) | 0.3 to 1 | 1 to 5 | 0.06 to 0.24 (≈ 0.0999 to 0.4 µM) | 0.25 to 1 (≈ 0.416 to 1.66 µM) | 0.25 to 1 (≈ 0.416 to 1.66 µM) | 0.4 to 1 |  |  | 
10 | COc1ccc(F)cc1[C@H](Cn1c(=O)n(C(C)(C)C(=O)N2CCCC2)c(=O)c2c(C)c(-n3nccn3)sc21)OCC(C)=O [Compound I-98] | 5 to 10 | 2.01 to 4 (≈ 3.28 to 6.53 µM) | 1.01 to 2 (≈ 1.65 to 3.26 µM) | 1.01 to 2 (≈ 1.65 to 3.26 µM) | 1 to 5 | 5 to 10 | 0.25 to 1 (≈ 0.408 to 1.63 µM) | 2.1 to 4 (≈ 3.43 to 6.53 µM) | 2.1 to 4 (≈ 3.43 to 6.53 µM) | 1 to 5 |  |  | 
11 | COc1ccc(F)cc1[C@H](Cn1c(=O)n(C(C)C(=O)NC(C)C)c(=O)c2c(C)c(-n3nccn3)sc21)OCC(C)(C)O (some centres unmarked) [Compound I-132] |  | 2.01 to 4 (≈ 3.34 to 6.64 µM) | 1.01 to 2 (≈ 1.68 to 3.32 µM) | 1.01 to 2 (≈ 1.68 to 3.32 µM) |  |  | 0.25 to 1 (≈ 0.415 to 1.66 µM) | 0.25 to 1 (≈ 0.415 to 1.66 µM) | 0.25 to 1 (≈ 0.415 to 1.66 µM) |  |  |  | 
12 | COc1ccc(F)cc1[C@H](Cn1c(=O)n(C(C)(C)C(=O)NC(C)C)c(=O)c2c(C)c(-n3nccn3)sc21)OC(C)(C)C(C)=O [Compound I-178] | 10 to 40 |  |  |  |  | 10 to 40 |  |  |  |  | 0.25 to 1 (≈ 0.398 to 1.59 µM) | 0.25 to 1 (≈ 0.398 to 1.59 µM) | 0.25 to 1 (≈ 0.398 to 1.59 µM)
13 | COc1ccccc1[C@@H](O)Cn1c(=O)n(C(C)(C)C(=O)OCc2ccccc2)c(=O)c2c(C)c(-n3nccn3)sc21 [Compound I-179] | > 40 | > 4.01 | 2.01 to 4 (≈ 3.49 to 6.95 µM) | > 4.01 |  | > 40 |  |  |  |  |  |  | 
14 | COc1ccc(F)cc1[C@H](Cn1c(=O)n(C(C)(C)C(=O)N2CC=CC2)c(=O)c2c(C)c(-n3nccn3)sc21)OCC(C)=O [Compound I-190] | 5 to 10 | > 4.01 | 2.01 to 4 (≈ 3.29 to 6.55 µM) | > 4.01 |  |  |  |  |  |  |  |  | 
15 | Cc1c(-n2nccn2)sc2c1c(=O)n(C(C)(C)C(=O)NC(C)C)c(=O)n2C[C@H](O)c1cc(F)ccc1OCC#N [Compound I-199] | 5 to 10 |  |  |  |  |  |  |  |  |  | 2.01 to 4 (≈ 3.53 to 7.02 µM) | 1.01 to 2 (≈ 1.77 to 3.51 µM) | 2.01 to 4 (≈ 3.53 to 7.02 µM)
16 | Cc1c(-n2nccn2)sc2c1c(=O)n(C(C)(C)C(=O)NC(C)C)c(=O)n2C[C@H](OCC(C)(C)O)c1cc(F)ccc1O [Compound I-236] | 10 to 40 | 2.01 to 4 (≈ 3.34 to 6.64 µM) | 2.01 to 4 (≈ 3.34 to 6.64 µM) | 1.01 to 2 (≈ 1.68 to 3.32 µM) |  |  |  |  |  |  |  |  | 
